This is an account of results in patent US8901118B2, “Compounds and methods for kinase modulation, and indications therefor” (Plexxikon Inc., priority 2010, dated 2014).

SMILES strings stand for the structures.

What all share (type): cell-based
In experiment [1] the target is T1, BCR-NTRK1 BaF3 cells (Homo sapiens, UniProt P04629).
T1 construct: fused on or other part: P11274 (Breakpoint cluster region protein)
The experiment is described as follows: BaF3 BCR-NTRK1 cell proliferation assay (ATPlite). The conditions noted are these: read-out: Inhibition of Cell Proliferation IC50, BCR/BaF3 TrkA. In short, it runs like this:
(§1)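 For these proliferation assays, engineered BaF3 cells (10,000/well, IL-3 withdrawn) and MV-4-11 cells (25,000/well) received compound serially diluted 1:3 from 10 μM over 8 points, with DMSO as control. After three days of culture, ATP content was measured by luminescence to derive IC50.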

Experiment [2] addresses T2, BCR-NTRK2 BaF3 cells (Homo sapiens, UniProt Q16620).
T2 construct: fused on or other part: P11274 (Breakpoint cluster region protein)
The experiment is described as follows: BaF3 BCR-NTRK2 cell proliferation assay (ATPlite). The conditions noted are these: read-out: Inhibition of Cell Proliferation IC50, BCR/BaF3 TrkB. An outline of the steps:
as §1

For experiment [3], the target named is T3, BCR-KIT BaF3 cells (Homo sapiens, UniProt P10721).
T3 construct: fused on or other part: P11274 (Breakpoint cluster region protein)
The experiment is described as follows: BaF3 BCR-KIT cell proliferation assay (ATPlite). The conditions noted are these: read-out: Inhibition of Cell Proliferation IC50, BCR/BaF3 Kit. In short, it runs like this: as §1

T1 sequence (P04629 510-781): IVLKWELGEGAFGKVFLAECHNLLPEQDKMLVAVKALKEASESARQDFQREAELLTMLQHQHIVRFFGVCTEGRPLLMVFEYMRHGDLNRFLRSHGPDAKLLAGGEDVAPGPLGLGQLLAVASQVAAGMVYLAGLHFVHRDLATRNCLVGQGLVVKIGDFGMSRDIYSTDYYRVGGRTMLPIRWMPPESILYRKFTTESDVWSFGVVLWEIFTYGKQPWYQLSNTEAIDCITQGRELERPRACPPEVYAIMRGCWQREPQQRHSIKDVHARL
T2 sequence (Q16620 538-807): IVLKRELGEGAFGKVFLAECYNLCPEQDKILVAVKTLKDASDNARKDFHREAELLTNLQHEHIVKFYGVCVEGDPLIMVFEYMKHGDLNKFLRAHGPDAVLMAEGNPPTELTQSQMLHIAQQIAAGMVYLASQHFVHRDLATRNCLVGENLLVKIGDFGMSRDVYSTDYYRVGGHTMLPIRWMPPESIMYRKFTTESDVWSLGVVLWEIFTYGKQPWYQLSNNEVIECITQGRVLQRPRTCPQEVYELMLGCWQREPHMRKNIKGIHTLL
T3 sequence (P10721 589-937): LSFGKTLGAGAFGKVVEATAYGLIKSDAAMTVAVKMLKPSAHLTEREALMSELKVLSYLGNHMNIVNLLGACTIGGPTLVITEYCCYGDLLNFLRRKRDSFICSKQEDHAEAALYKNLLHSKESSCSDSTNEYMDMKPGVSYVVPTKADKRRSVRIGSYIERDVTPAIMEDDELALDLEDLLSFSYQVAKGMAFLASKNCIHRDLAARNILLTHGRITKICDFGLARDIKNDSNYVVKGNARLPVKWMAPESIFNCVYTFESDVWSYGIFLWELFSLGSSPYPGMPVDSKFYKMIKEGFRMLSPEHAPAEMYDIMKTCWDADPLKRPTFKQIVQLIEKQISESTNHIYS

With `CCc1ccc(Nc2ccc(Cc3c[nH]c4ncnc(OC)c34)c(F)n2)cn1` [Compound P-4007, (6-Ethyl-pyridin-3-yl)-[6-fluoro-5-(4-methoxy-7H-pyrrolo[2,3-d]pyrimidin-5-ylmethyl)-pyridin-2-yl]-amine], the IC50 in experiment [1] was < 10 nM; in experiment [2], < 100 nM; in experiment [3] it was < 1000 nM.

On to `CCOc1ccc(Nc2ccc(Cc3c[nH]c4ncnc(OCCOC)c34)c(F)n2)cn1` [Compound P-4008, (6-Ethoxy-pyridin-3-yl)-{6-fluoro-5-[4-(2-methoxy-ethoxy)-7H-pyrrolo[2,3-d]pyrimidin-5-ylmethyl]-pyridin-2-yl}-amine], for which the IC50 in experiment [1] was < 100 nM; in experiment [2], < 100 nM; in experiment [3], < 1000 nM.

As for `CCc1ccc(Nc2ccc(Cc3c[nH]c4ncnc(C)c34)c(F)n2)cn1` [Compound P-4009, (6-Ethyl-pyridin-3-yl)-[6-fluoro-5-(4-methyl-7H-pyrrolo[2,3-d]pyrimidin-5-ylmethyl)-pyridin-2-yl]-amine], the IC50 in experiment [1] is < 100 nM; in experiment [2], < 10 nM; in experiment [3] it was < 1000 nM.

Regarding `COc1ncnc2[nH]cc(Cc3ccc(Nc4ccc(C)nc4)nc3F)c12` [Compound P-4010, [6-Fluoro-5-(4-methoxy-7H-pyrrolo[2,3-d]pyrimidin-5-ylmethyl)-pyridin-2-yl]-(6-methyl-pyridin-3-yl)-amine], the IC50 is < 1000 nM in experiment [1], < 100 nM in experiment [2] and < 1000 nM in experiment [3].

In the case of `CCn1cc(Nc2ccc(Cc3c[nH]c4ncnc(OC)c34)c(F)n2)cn1` [Compound P-4011, (1-Ethyl-1H-pyrazol-4-yl)-[6-fluoro-5-(4-methoxy-7H-pyrrolo[2,3-d]pyrimidin-5-ylmethyl)-pyridin-2-yl]-amine], the IC50 was < 1000 nM in experiment [1], < 1000 nM in experiment [2] and > 1000 nM in experiment [3].

For `CCOc1ncnc2[nH]cc(Cc3ccc(Nc4cnn(CC)c4)nc3F)c12` [Compound P-4012, [5-(4-Ethoxy-7H-pyrrolo[2,3-d]pyrimidin-5-ylmethyl)-6-fluoro-pyridin-2-yl]-(1-ethyl-1H-pyrazol-4-yl)-amine], the values for the IC50 in experiment [1], in experiment [2] and in experiment [3] were < 1000 nM, < 100 nM and < 1000 nM, respectively.

Turning to `CCn1cc(Nc2ccc(Cc3c[nH]c4ncnc(C)c34)c(F)n2)cn1` [Compound P-4013, (1-Ethyl-1H-pyrazol-4-yl)-[6-fluoro-5-(4-methyl-7H-pyrrolo[2,3-d]pyrimidin-5-ylmethyl)-pyridin-2-yl]-amine], the IC50 in experiment [1], in experiment [2] and in experiment [3] was < 1000 nM throughout.

In the case of `CCn1cc(Nc2ccc(Cc3c[nH]c4ncnc(OCCOC)c34)c(F)n2)cn1` [Compound P-4014, (1-Ethyl-1H-pyrazol-4-yl)-{6-fluoro-5-[4-(2-methoxy-ethoxy)-7H-pyrrolo[2,3-d]pyrimidin-5-ylmethyl]-pyridin-2-yl}-amine], the IC50 is < 1000 nM in experiment [1], < 1000 nM in experiment [2] and > 1000 nM in experiment [3].

As to `COCCOc1ncnc2[nH]cc(Cc3ccc(Nc4ccc(C)nc4)nc3F)c12` [Compound P-4015, {6-Fluoro-5-[4-(2-methoxy-ethoxy)-7H-pyrrolo[2,3-d]pyrimidin-5-ylmethyl]-pyridin-2-yl}-(6-methyl-pyridin-3-yl)-amine], the IC50 is < 1000 nM in experiment [1], < 1000 nM in experiment [2] and > 1000 nM in experiment [3].

`CCc1ccc(Nc2ccc(Cc3c[nH]c4ncnc(OCCOC)c34)c(F)n2)cn1` [Compound P-4016, (6-Ethyl-pyridin-3-yl)-{6-fluoro-5-[4-(2-methoxy-ethoxy)-7H-pyrrolo[2,3-d]pyrimidin-5-ylmethyl]-pyridin-2-yl}-amine]: the IC50 in experiment [1] is < 100 nM; in experiment [2], < 10 nM; in experiment [3] it was < 100 nM.

Regarding `CCOc1ncnc2[nH]cc(Cc3ccc(Nc4ccc(C)nc4)nc3F)c12` [Compound P-4017, [5-(4-Ethoxy-7H-pyrrolo[2,3-d]pyrimidin-5-ylmethyl)-6-fluoro-pyridin-2-yl]-(6-methyl-pyridin-3-yl)-amine], the IC50 in experiment [1], in experiment [2] and in experiment [3] was < 1000 nM in each case.

With `CCOc1ncnc2[nH]cc(Cc3ccc(Nc4ccc(OC)nc4)nc3F)c12` [Compound P-4018, [5-(4-Ethoxy-7H-pyrrolo[2,3-d]pyrimidin-5-ylmethyl)-6-fluoro-pyridin-2-yl]-(6-methoxy-pyridin-3-yl)-amine], the values for the IC50 in experiment [1], in experiment [2] and in experiment [3] were < 100 nM, < 100 nM and < 1000 nM, respectively.

Take `COCCOc1ncnc2[nH]cc(Cc3ccc(Nc4ccc(OC)nc4)nc3F)c12` [Compound P-4019, {6-Fluoro-5-[4-(2-methoxy-ethoxy)-7H-pyrrolo[2,3-d]pyrimidin-5-ylmethyl]-pyridin-2-yl}-(6-methoxy-pyridin-3-yl)-amine]: the values for the IC50 in experiment [1], in experiment [2] and in experiment [3] were < 1000 nM, < 100 nM and < 1000 nM, respectively.

As to `CCOc1ncnc2[nH]cc(Cc3ccc(Nc4ccc(Br)nc4)nc3F)c12` [Compound P-4020, (6-Bromo-pyridin-3-yl)-[5-(4-ethoxy-7H-pyrrolo[2,3-d]pyrimidin-5-ylmethyl)-6-fluoro-pyridin-2-yl]-amine], the IC50 in experiment [1] is < 1000 nM; in experiment [2], < 100 nM; in experiment [3] it was < 1000 nM.

With `CCOc1ncnc2[nH]cc(Cc3ccc(Nc4cccnc4)nc3F)c12` [Compound P-4021, [5-(4-Ethoxy-7H-pyrrolo[2,3-d]pyrimidin-5-ylmethyl)-6-fluoro-pyridin-2-yl]-pyridin-3-yl-amine], the IC50 is > 1000 nM in experiment [1], < 1000 nM in experiment [2] and > 1000 nM in experiment [3].

As to `COc1ccc(Nc2ccc(C(=O)c3c[nH]c4ncnc(C5CC5)c34)c(F)n2)cn1` [Compound P-4022, (4-cyclopropyl-7H-pyrrolo[2,3-d]pyrimidin-5-yl)-[2-fluoro-6-(6-methoxy-pyridin-3-ylamino)-pyridin-3-yl]-methanone], the IC50 is < 10 nM in experiment [1], < 10 nM in experiment [2] and < 1000 nM in experiment [3].

`COc1ccc(Nc2ccc(Cc3c[nH]c4ncnc(C5CC5)c34)c(F)n2)cn1` [Compound P-4023, [5-(4-cyclopropyl-7H-pyrrolo[2,3-d]pyrimidin-5-ylmethyl)-6-fluoro-pyridin-2-yl]-(6-methoxy-pyridin-3-yl)-amine]: the values for the IC50 in experiment [1], in experiment [2] and in experiment [3] were < 100 nM, < 100 nM and < 1000 nM, respectively.

For `CCOc1ccc(Nc2ccc(C(=O)c3c[nH]c4ncnc(OC)c34)c(F)n2)cn1` [Compound P-4024, [6-(6-Ethoxy-pyridin-3-ylamino)-2-fluoro-pyridin-3-yl]-(4-methoxy-7H-pyrrolo[2,3-d]pyrimidin-5-yl)-methanone], the IC50 in experiment [1] was < 100 nM; in experiment [2], < 100 nM; in experiment [3], < 1000 nM.

Turning to `CCOc1ncnc2[nH]cc(C(=O)c3ccc(Nc4ccc(OC)nc4)nc3F)c12` [Compound P-4025, (4-Ethoxy-7H-pyrrolo[2,3-d]pyrimidin-5-yl)-[2-fluoro-6-(6-methoxy-pyridin-3-ylamino)-pyridin-3-yl]-methanone], the IC50 was < 100 nM in experiment [1], < 100 nM in experiment [2] and > 1000 nM in experiment [3].

On to `CCOc1ccc(Nc2ccc(Cc3c[nH]c4ncnc(C5CC5)c34)c(F)n2)cn1` [Compound P-4026, [5-(4-Cyclopropyl-7H-pyrrolo[2,3-d]pyrimidin-5-ylmethyl)-6-fluoro-pyridin-2-yl]-(6-ethoxy-pyridin-3-yl)-amine], for which the IC50 is < 100 nM in experiment [1], < 10 nM in experiment [2] and < 1000 nM in experiment [3].

`CCOc1ccc(Nc2ccc(C(=O)c3c[nH]c4ncnc(C5CC5)c34)c(F)n2)cn1` [Compound P-4027, (4-Cyclopropyl-7H-pyrrolo[2,3-d]pyrimidin-5-yl)-[6-(6-ethoxy-pyridin-3-ylamino)-2-fluoro-pyridin-3-yl]-methanone]: the figures for the IC50 in experiment [1], in experiment [2] and in experiment [3] were < 100 nM, < 10 nM and < 1000 nM, respectively.

As for `CCc1ccc(Nc2ccc(Cc3c[nH]c4ncnc(C5CC5)c34)c(F)n2)cn1` [Compound P-4028, [5-(4-Cyclopropyl-7H-pyrrolo[2,3-d]pyrimidin-5-ylmethyl)-6-fluoro-pyridin-2-yl]-(6-ethyl-pyridin-3-yl)-amine], the IC50 in experiment [1] is < 10 nM; in experiment [2], < 10 nM; in experiment [3] it was < 1000 nM.

In the case of `CCc1ccc(Nc2ccc(C(=O)c3c[nH]c4ncnc(C5CC5)c34)c(F)n2)cn1` [Compound P-4029, (4-Cyclopropyl-7H-pyrrolo[2,3-d]pyrimidin-5-yl)-[6-(6-ethyl-pyridin-3-ylamino)-2-fluoro-pyridin-3-yl]-methanone], the IC50 in experiment [1] was < 10 nM; in experiment [2] it was < 10 nM; in experiment [3], < 100 nM.

`Cc1ccc(Nc2ccc(Cc3c[nH]c4ncnc(C5CC5)c34)c(F)n2)cn1` [Compound P-4030, [5-(4-Cyclopropyl-7H-pyrrolo[2,3-d]pyrimidin-5-ylmethyl)-6-fluoro-pyridin-2-yl]-(6-methyl-pyridin-3-yl)-amine]: the IC50 in experiment [1] is < 1000 nM; in experiment [2], < 100 nM; in experiment [3], < 1000 nM.

On to `Cc1ccc(Nc2ccc(C(=O)c3c[nH]c4ncnc(C5CC5)c34)c(F)n2)cn1` [Compound P-4031, (4-Cyclopropyl-7H-pyrrolo[2,3-d]pyrimidin-5-yl)-[2-fluoro-6-(6-methyl-pyridin-3-ylamino)-pyridin-3-yl]-methanone], for which the IC50 in experiment [1] is < 100 nM; in experiment [2], < 10 nM; in experiment [3], < 1000 nM.
